Laboratory results from ChEMBL document CHEMBL2146425, “Solid-phase synthesis and biological evaluation of Joro spider toxin-4 from Nephila clavata” (J Nat Prod, 2011).

Assays:
[1] = target: Glutamate receptor 1 (Rattus norvegicus) (UniProt P19490); assay: Inhibition of rat GluA1 expressed in xenopus laevis oocytes assessed as inhibition of glutamate-evoked current at membrane potential of -60 mV at 100 uM by voltage-clamp electrophysiology; type: cell-based; details: Oocyte
[2] = target: Glutamate NMDA receptor; Grin1/Grin2a (Rattus norvegicus) (UniProt P35439+Q00959); assay: Inhibition of rat GluN1/2A expressed in xenopus laevis oocytes assessed as inhibition of glycine-evoked current at membrane potential of -60 mV at 100 uM by voltage-clamp electrophysiology; type: cell-based; details: Oocyte
[3] = target: Glutamate NMDA receptor; Grin1/Grin2a (Rattus norvegicus, UniProt P35439+Q00959); assay: Inhibition of rat GluN1/2A expressed in xenopus laevis oocytes assessed as inhibition of glycine-evoked current at membrane potential of -60 mV by voltage-clamp electrophysiology; type: cell-based, Oocyte
Glutamate receptor 1 = Glutamate receptor 1 (Rattus norvegicus, UniProt P19490); assay: Inhibition of rat GluA1 expressed in xenopus laevis oocytes assessed as inhibition of glutamate-evoked current at membrane potential of -60 mV by voltage-clamp electrophysiology; type: cell-based, Oocyte
Chain of Glutamate receptor 1 (P19490 whole entry): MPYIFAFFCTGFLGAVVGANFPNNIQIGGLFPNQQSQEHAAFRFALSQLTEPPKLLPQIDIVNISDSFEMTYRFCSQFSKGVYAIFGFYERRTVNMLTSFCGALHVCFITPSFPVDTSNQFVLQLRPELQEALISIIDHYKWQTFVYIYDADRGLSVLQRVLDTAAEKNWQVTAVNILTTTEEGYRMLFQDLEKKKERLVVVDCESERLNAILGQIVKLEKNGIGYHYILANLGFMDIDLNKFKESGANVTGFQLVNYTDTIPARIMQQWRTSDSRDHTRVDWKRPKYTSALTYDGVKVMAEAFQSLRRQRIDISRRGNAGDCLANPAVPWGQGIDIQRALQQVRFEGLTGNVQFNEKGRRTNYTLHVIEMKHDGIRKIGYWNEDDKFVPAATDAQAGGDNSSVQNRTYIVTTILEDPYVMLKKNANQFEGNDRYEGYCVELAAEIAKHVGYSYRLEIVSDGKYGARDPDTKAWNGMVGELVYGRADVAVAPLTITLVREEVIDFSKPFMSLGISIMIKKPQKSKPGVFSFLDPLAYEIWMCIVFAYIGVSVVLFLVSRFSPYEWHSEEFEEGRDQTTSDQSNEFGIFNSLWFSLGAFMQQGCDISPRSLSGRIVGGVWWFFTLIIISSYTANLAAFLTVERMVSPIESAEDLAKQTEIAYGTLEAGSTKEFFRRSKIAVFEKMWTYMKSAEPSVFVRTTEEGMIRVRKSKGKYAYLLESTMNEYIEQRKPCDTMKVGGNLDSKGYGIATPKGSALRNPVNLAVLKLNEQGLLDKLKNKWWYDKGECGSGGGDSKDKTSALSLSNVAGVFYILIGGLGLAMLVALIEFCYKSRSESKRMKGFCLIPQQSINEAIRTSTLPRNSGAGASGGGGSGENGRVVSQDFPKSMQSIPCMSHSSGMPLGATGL

Chain of Glutamate receptor 1 (Rattus norvegicus) (P19490 whole entry): as above

| inhibition [1] [%] | inhibition [2] [%] | Structure (SMILES) | IC50 [3] [nM] | IC50 (Glutamate receptor 1) [nM] |
| --- | --- | --- | --- | --- |
| 25 | 25 | N=C(N)NCCC[C@H](N)C(=O)N[C@@H](CCCN)C(=O)NCCCCCNC(=O)[C@H](CC(N)=O)NC(=O)Cc1ccc(O)cc1O |  |  |
|  |  | N=C(N)NCCC[C@H](N)C(=O)NCCCNCCCNCCCCCNC(=O)[C@H](CC(N)=O)NC(=O)Cc1ccc(O)cc1O | 74 | 77 |
